{
  "source": "patent US7345144B2",
  "about": "“Cyclic peptides for treatment of cachexia” (Palatin Technologies, Inc., priority 2001, dated 2008)",
  "key": {"[1]": {"test": "IV feeding study in male Sprague-Dawley rats", "assay_type": "in vivo, rat", "settings": "1 mg/kg, 24 hour period", "experimental": "(§1) Change in food intake and body weight is evaluated for selected peptides. Male Sprague-Dawley rats are obtained from Taconic (Germantown, N.Y.). Animals are individually housed in conventional plexiglass hanging cages and maintained on a controlled 12 hour on/off light cycle. Water and powdered (LabDiet, 5P00 Prolab RMH 3000) or pelleted (Harlan Teklad 2018 18% Protein Rodent Diet) food is provided ad libitum. For 1 week before treatment, 24-hour food intake and body weight change is recorded to assess a baseline for the group during vehicle treatment. The rats are dosed IV or IP with vehicle or selected peptides (0.5-3 mg/kg). The changes in body weight and food intake for the 24 hour period after dosing are determined. The changes in body weight and food intake for the 48 hour and 72 hour periods after dosing are also measured to determined reversal of changes in body weight and food intake effects back to baseline levels.\nBriefly, male Sprague-Dawley rats (300-350 g) were individually housed in shoe box cages with a 12 hour light/dark period. Food intake and body weights were monitored for 24 hours prior to the start of the study. Rats were randomized by body weight and then dosed just before lights-off with the compound of Example 11 or the same volume of vehicle. A pre-weighed amount of food was provided and food intake was determined at 2, 4, 20 and 24 hours."}, "MC1-R [2]": {"molecular_target": "T1, MC1-R (Mus musculus, UniProt Q01727)", "T1 sequence (Q01727 whole entry)": "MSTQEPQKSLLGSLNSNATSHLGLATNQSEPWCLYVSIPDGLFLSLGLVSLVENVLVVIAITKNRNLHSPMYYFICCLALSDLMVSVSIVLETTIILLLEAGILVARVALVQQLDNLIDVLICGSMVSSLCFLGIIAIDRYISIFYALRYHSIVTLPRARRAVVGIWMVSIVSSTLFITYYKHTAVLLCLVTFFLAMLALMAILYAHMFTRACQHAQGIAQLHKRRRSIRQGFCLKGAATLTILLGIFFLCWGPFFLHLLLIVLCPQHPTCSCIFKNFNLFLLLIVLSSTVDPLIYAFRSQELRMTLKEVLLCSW", "test": "Competitive inhibition binding assay using [I125]-NDP-α-MSH, MC1-R (B-16 mouse melanoma cell membranes)", "settings": "read-out: Ki (nM) MC1-R; B-16 mouse melanoma cells"}, "hMC4-R": {"molecular_target": "hMC4-R (Homo sapiens, UniProt P32245)", "sequence (P32245 whole entry)": "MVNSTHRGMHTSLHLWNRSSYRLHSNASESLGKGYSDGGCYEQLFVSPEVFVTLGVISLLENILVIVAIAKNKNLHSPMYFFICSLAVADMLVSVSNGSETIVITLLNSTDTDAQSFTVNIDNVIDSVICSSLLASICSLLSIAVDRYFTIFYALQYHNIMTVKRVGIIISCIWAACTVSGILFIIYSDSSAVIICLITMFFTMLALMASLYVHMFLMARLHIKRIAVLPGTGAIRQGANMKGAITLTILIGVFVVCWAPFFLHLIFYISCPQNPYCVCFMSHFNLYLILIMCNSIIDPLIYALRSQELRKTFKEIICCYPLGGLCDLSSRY", "test": "Competitive inhibition binding assay using [I125]-NDP-α-MSH, hMC4-R (HEK-293 membranes)", "settings": "read-out: Ki (nM) MC4-R; HEK-293 cells transfected with hMC4-R"}, "hMC3-R [3]": {"molecular_target": "T2, hMC3-R (Homo sapiens, UniProt P41968)", "T2 sequence (P41968 whole entry)": "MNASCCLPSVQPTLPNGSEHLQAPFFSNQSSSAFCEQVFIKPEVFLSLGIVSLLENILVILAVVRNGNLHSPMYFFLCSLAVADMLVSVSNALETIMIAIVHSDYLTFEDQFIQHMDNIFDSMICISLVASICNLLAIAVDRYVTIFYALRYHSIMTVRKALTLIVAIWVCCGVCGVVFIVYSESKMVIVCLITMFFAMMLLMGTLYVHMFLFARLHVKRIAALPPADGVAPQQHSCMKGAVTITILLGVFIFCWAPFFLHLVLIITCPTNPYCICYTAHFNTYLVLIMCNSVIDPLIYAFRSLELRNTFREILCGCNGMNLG", "test": "Competitive inhibition binding assay using [I125]-NDP-α-MSH, hMC3-R (HEK-293 membranes)", "settings": "read-out: Ki (nM) MC3-R; HEK-293 cells transfected with hMC3-R"}, "[4]": {"test": "ICV feeding study in rats", "assay_type": "in vivo", "settings": "rat, 21 hours", "experimental": "as §1, with “peptides. Rats with indwelling intracerebroventricular cannulas (ICV rats)” for “peptides. Male Sprague-Dawley rats”, “from Hilltop Lab Animals, Inc. (Scottdale, Pa.).” for “from Taconic (Germantown, N.Y.).”, “dosed ICV” for “dosed IV or IP”, “peptides (0.1-3 nmol).” for “peptides (0.5-3 mg/kg).”, “to determine” for “to determined”\nAll animals were dosed on the first day with saline ICV, and given a pre-weighed food bowl with food weight recorded at 2 and 21 hours post-ICV injection. On day 2, animals were randomized based on the 21 hour food consumption, with animals eliminated due to low food consumption or food spills. […] Food weights were again recorded at 2, 4, 21 and 24 hours post-ICV injection. In some instances, multiple different tests were conducted with each group containing between 8 and 12 members; the average value is given."}, "MC1-R [5]": {"molecular_target": "T1, MC1-R", "test": "cAMP functional assay, MC1-R (B-16 mouse melanoma cells)", "assay_type": "cell-based", "settings": "read-out: EC50 as to MC1-R"}, "hMC3-R [6]": {"molecular_target": "T2, hMC3-R", "test": "cAMP functional assay, hMC3-R (HEK-293 cells)", "assay_type": "cell-based", "set-up": "expressed in transfected cells; host or cells: HEK-293"}},
  "data": [
    {"substance": "Ac-cyclo(-Asp-Trp-D-Nal 2-Arg-Nal 2-Lys)-NH2 [Example 11]", "values": [
      {"measurement": "increase in food intake", "setting": "[1]", "result": 8, "unit": "%"},
      {"measurement": "Ki", "setting": "MC1-R [2]", "result": 5680, "unit": "nM"},
      {"measurement": "Ki", "setting": "hMC4-R", "result": 0.03, "unit": "nM"},
      {"measurement": "Ki", "setting": "hMC3-R [3]", "result": 2, "unit": "nM"},
      {"measurement": "average increase in food intake", "setting": "[4]; 0.1 nmol", "result": 4, "unit": "%"},
      {"measurement": "average increase in food intake", "setting": "[4]; 0.3 nmol", "result": 18, "unit": "%"},
      {"measurement": "average increase in food intake", "setting": "[4]; 1.0 nmol", "result": 20, "unit": "%"},
      {"measurement": "EC50", "setting": "MC1-R [5]", "result": "> 1000", "unit": "nM"},
      {"measurement": "agonist/antagonist status as to MC3-R", "setting": "hMC3-R [6]", "result": "inactive"}
    ]}
  ]
}
